Reference: article PMC2360244 (British Journal of Cancer, 2007)

Assays:
[1] = system: lung, breast, colon, prostate and ovarian tumour cell lines; assay: cells; details: Homo sapiens, 96 h, read-out: IC50 values, cell proliferation of solid tumour cell lines (range over panel), lung, breast, colon, prostate and ovarian tumour cell lines; 4-day incubation
Method: The effect of HDAC inhibitors on cell proliferation was measured using an MTT (3-(4,5-dimethyl-2-thiazolyl)-2,5-diphenyl-2H-tetrazolium bromide)-based assay (Serva, Heidelberg, Germany). Cells were seeded in Falcon or NUNC 96-well culture plates (Life Technologies, Merelbeke, Belgium) in 100 μl culture medium and allowed to adhere to plastic for 18–48 h. Test compounds were dissolved in DMSO and further dilutions were made in culture medium, with final concentrations of DMSO never exceeding 0.1% (v v^−1), and incubated for 4 days. Proliferation of NSCLC was assessed using Alamar Blue-based assay. Cells were seeded in COSTAR 384-well culture plates in 45 μl culture medium and allowed to adhere to plastic for 24 h. Alamar blue was added after 72 h, with the exception of HCC-15, HCC-44, NCI-H2122 and NCI-H460, where Alamar blue was added after 90 h and OD values were measured at 4 days following compound exposure. Data are presented as mean±s.d. of three independent experiments.

[2] = system: HCT116 colon carcinoma xenograft; assay: HCT116 colon xenograft, tumour growth; assay type: in vivo, mice; details: median tumour size at end of study
Method: All mice used in the in vivo studies were athymic male NMRI nu/nu mice purchased from Janvier (France) and were treated according to the ethical guidelines prescribed by UKCCCR. A2780 ovarian, HCT116 colon and H460 lung carcinoma cells were injected s.c. (10^7 cells per 200 μl) into the inguinal region of Nude mice. […] Tumour size was determined using caliper measurement and tumour volume was determined by using the formula: TV=(a^2 × b)/2 (in which a represents the width and b the length).
Mice were treated orally once daily (q.d.) between day 4 and 28 (A2780) or between day 4 and 32 (H460 and HCT116). (A) A2780 ovarian tumours were measured at least twice a week throughout the study, and results are represented as the median tumour size, expressed in mm^3, of each individual group (n=10). (B) Mice were treated orally q.d. at the indicated doses. Results are represented as the treated/control values (%) of the median tumour size (n=10) at the end of the study.

[3] = system: acetylated H3 in A2780 ovarian xenografts; assay: H3 acetylation in A2780 xenograft tumour tissue, immunofluorescence; assay type: in vivo, mice; details: 40 mpk p.o. once daily, tumours harvested 4 h after dosing, day 2
Method: For immunofluorescent staining of AcH3, cryosections of A2780 ovarian carcinoma were fixed for 2 min in 4% neutral buffered formalin and subsequently for 10 min in ethanol (100%). After blocking with goat immunoglobulin (Jackson Immunoresearch Laboratories, Suffolk, UK) for 60 min, the sections were incubated with anti-AcH3 (Upstate, 1/5000) for 2 h and with goat anti-rabbit CY3-conjugated secondary antibody (1/500 Jackson Immunoresearch Laboratories) for 2 h. For negative controls, primary antibody was omitted. Nuclei were counterstained using Hoechst (1/2000) for 5 min and the cryosections were mounted in glycerin-gelatin. Images were taken using the Zeiss Axioplan 2 & Axiocam, and processed using Photoshop 7.0 and Image Tool Processing Kit. Representative images of each group (n=3) are shown. For TUNEL staining, cells were fixed with 4% paraformaldehyde for 5 min and then incubated for 1 h at 37°C in a solution containing 25 mM Tris, 200 mM sodium cacodylate, 1.25 mg ml^−1 BSA, 1.25 mM CoCl2, 10 mM dATP (Sigma Chemical Company), 2.5 mM fluorescein-dUTP (Amersham Pharmacia Biotech AB) and 50 U ml^−1 TdT (Roche, Vilvoorde, Belgium). Incorporated Fluorescein-dUTP was detected with a sheep antifluorescein peroxidase-conjugated antiserum (Boehringer Mannheim, 1/600, Roche, Vivoorde, Belgium). The peroxidase conjugate was visualised using amino ethylcarbazol. […]

p21waf1,cip1 promoter = p21waf1,cip1 promoter activity in vivo, A2780-p21waf1,cip1ZsGreen xenograft; design: species or system mice; details: 40 mpk p.o. once, 24 h after dosing
Method: To generate an HDAC inhibitor-responsive p21^waf1,cip1 promoter construct, the –1300 to +88 region of the p21^waf1,cip1 promoter was cloned into pGL3-basic-ZsGreen and stably transfected into A2780 ovarian carcinoma cells ([Belien et al, 2006]). For in vivo analysis of p21^waf1,cip1 promoter activity, A2780-p21^waf1,cip1ZsGreen cells were injected s.c. (10^7 cells per 200 μl) into the inguinal region of Nude mice and caliper-measurable tumours were obtained after 12 days. […] Tumours were collected using transcardial perfusion fixation with 4% paraformaldehyde. Cryosections of 10-μm thickness were mounted on glass slides and air-dried for 30 min at room temperature. Bodipy 558/568-phalloidin staining was performed on whole mounts to visualise actin (background cell staining). ZsGreen fluorescence was evaluated with an Axioplan 2 (Zeiss, Germany) equipped with Epiplan-Neofluar objectives and an Axiocam camera. CD-31 (CY3) immunofluorescent labelling was performed on whole mounts to visualise the endothelium of blood vessels.
(A) Tumours were harvested 4 h after the last dose. Nuclei are stained with Hoechst, while (CY3) immunofluorescent labelling was performed to visualise acetylated H3. Representative sections from […] independent mice are shown. (B) and (C) Tumours were collected after 24 h using transcardial perfusion fixation with 4% paraformaldehyde. […]

[4] = system: A2780 ovarian carcinoma cells; assay: Annexin V staining (apoptosis), FACS; assay type: cell-based, human; details: 48 h, concentration-dependent
Method: Human A2780 ovarian carcinoma cells were seeded at 2 × 10^6 cells per 75-cm^2 flask and, after 24 h, incubated with the indicated concentration of test compound for 48 h. The cells were subsequently collected, centrifuged and washed with PBS. The cell pellets were stained with Annexin-V-FITC antibody and propidium iodide with a kit from PharMingen, BD Biosciences, Erembodegem, Belgium (cat 66121E).
Cells were stained with Annexin V (Pharmingen) and propidium iodide, and analysed by FACS. […] Membrane-damaged cells were defined as both Annexin V- and propidium iodide-positive. Shown are mean values±variation for two independent experiments. […] Green asterisks represent mitotic cells, while red arrows point at specific DNA fragmentation. (B) Rat Aortic Ring Assays were performed as described in the Methods section.

[5] = system: microvessel outgrowth from rat aortic rings; assay: Rat aortic ring assay (angiogenesis); assay type: cell-based, Sprague-Dawley rats; details: 192 h, 300 nM, 8 days, compared to controls, mean±s.e.m., read-out: inhibition of total microvessel area
Method: Briefly, thoracic aorta were freshly isolated from 1- to 2-month-old Sprague–Dawley rats and 1-mm-long sections (aortic rings) were embedded in fibrin gel clots in six-well plates. […] Test compounds were added at the indicated concentrations at day 0 and again together with fresh media on day 2 and day 5 of culture. The ability of experimental compounds to inhibit microvessel outgrowth was compared directly with vehicle-treated control rings. […] Microvessel area, expressed as pixels^2, was determined for each aortic ring and the per cent inhibition of microvessel area compared to control rings was calculated using the mean values for each treatment group. Statistical differences between experimental groups (five independent rings) were analysed by ANOVA and Dunnett's t-test, with a P-value of <0.05 or less considered statistically significant.

Structure (SMILES): O=C(NO)c1cnc(N2CCN(S(=O)(=O)c3ccc4ccccc4c3)CC2)nc1 [R306465]
- IC50 [1]: 30 to 300 nM
- T/C values (%) HCT116 colon ([2]; 10 mpk p.o. q.d. day 4 to 32): 76%
- T/C values (%) HCT116 colon ([2]; 20 mpk p.o. q.d. day 4 to 32): 75%
- T/C values (%) HCT116 colon ([2]; 30 mpk p.o. q.d. day 4 to 32): 57%
- T/C values (%) HCT116 colon ([2]; 40 mpk p.o. q.d. day 4 to 32): 34%
- H3 acetylation in tumour tissue [3]: maximal and homogeneous increase in H3 acetylation
- p21waf1,cip1 promoter activation (ZsGreen fluorescence) in tumour sections (p21waf1,cip1 promoter): large number of fluorescing cells
- percentage of cells positive for Annexin V [4]: significant increase
- inhibition at 0.3 µM [5]: 67 ± 7%
